Data: patent US20220064141A1, “BENZOPYRIDONE HETEROCYCLIC COMPOUND AND USE THEREOF” (BrightGene Bio-Medical Technology Co., Ltd., priority 2019, published 2022)

Each compound was assayed on NCI-H358 human non-small cell lung cancer cell with KRAS G12C mutation (assay: Cell Titer-Glo cell viability, NCI-H358 cells (72 h)). Details: Homo sapiens, NCI-H358, 72 h, class symbols.
Assay type: cell-based
Excerpt: Effect Example 1: Pharmacodynamic Assay 1 (Determination of the efficacy of the compounds of the present disclosure on NCI-H358 human non-small cell lung cancer cell with KRAS G12C mutation)
The following method was used to determine the effect of the compounds of the present disclosure on tumor cell proliferation.
For the KRAS G12C subtype, NCI-H358 non-small cell lung cancer cells with KRAS G12C mutation were used to determine the efficacy of the compounds in inhibiting cancer cell viability. NCI-H358 cells were cultured in a DMEM medium containing 10% fetal bovine serum, 100 U penicillin and […] streptomycin. The cells were cultured in an incubator with 5% CO2 at 37° C. Cancer cell viability was evaluated by determining the content of ATP with Cell Titer-Glo® kit (Luminescent Cell Viability Assay kit, please refer to the manufacturer's instructions for use) and evaluating the inhibition of cell growth.
The experimental method was proceeded in accordance with the steps in the instructions for the kit, and was described briefly as follows. The test compounds were first dissolved in DMSO to prepare stock solutions, and then the stock solutions were subjected to gradient dilution with the culture media of the corresponding cells, thereby preparing test samples. The final concentrations of the compounds were in the range of 30 μM to 0.01 nM. Tumor cells in logarithmic growth phase were seeded into a 96-well cell culture plate at an appropriate density. After the cell culture plate was left overnight in an incubator with 5% CO2 at 37° C., the test compound samples were added thereto and then the cells were further cultured for 72 hours. After the incubation was complete, an appropriate volume of Cell Titer-Glo® reagent was added into each well, and the cells were incubated at 37° C. for 1 to 4 hours. Then, the […] was read on a microplate reader.

Q: C=CC(=O)N1CCN(c2c(C#N)c(=O)n(-c3ccccc3C(C)C)c3cc(-c4cc(Cl)cc(F)c4N)c(Cl)cc23)[C@@H](C)C1 (atropisomer, axis not shown) [Compound I-78] was tested. Which IC50 did it give?
A: < 100 nM

Q: For C=CC(=O)N1CCN(c2c(C#N)c(=O)n(-c3ccccc3C(C)C)c3cc(-c4c(N)cccc4F)c(Cl)cc23)[C@@H](C)C1 [Compound I-9], which IC50 is on record?
A: 100 to 1000 nM

Q: For C=CC(=O)N1CCN(c2c(C#N)c(=O)n(-c3ccccc3C(C)C)c3cc(-c4ccccc4F)c(Cl)cc23)[C@@H](C)C1 [Compound I-10], which IC50 is on record?
A: > 1000 nM

Q: C=CC(=O)N1CCN(c2c(C#N)c(=O)n(-c3ccccc3C(C)C)c3cc(-c4ccc(Cl)cc4)c(Cl)cc23)[C@@H](C)C1 [Compound I-11] was tested. Which IC50 did it give?
A: > 1000 nM

Q: With C=CC(=O)N1CCN(c2c(C#N)c(=O)n(-c3ccccc3C(C)C)c3cc(-c4ccccc4C(N)=O)c(Cl)cc23)[C@@H](C)C1 [Compound I-12] as the compound, how does the IC50 read?
A: 100 to 1000 nM

Q: For C=CC(=O)N1CCN(c2c(C#N)c(=O)n(-c3ccccc3C(C)C)c3cc(-c4cc(N)ccc4F)c(Cl)cc23)[C@@H](C)C1 [Compound I-13], which IC50 is on record?
A: 100 to 1000 nM

Q: C=CC(=O)N1CCN(c2c(C#N)c(=O)n(-c3ccccc3C(C)C)c3cc(-c4cccc(F)c4)c(Cl)cc23)[C@@H](C)C1 [Compound I-14] was tested. Which IC50 did it give?
A: 100 to 1000 nM

Q: With C=CC(=O)N1CCN(c2c(C#N)c(=O)n(-c3ccccc3C(C)C)c3cc(-c4ccc(F)cc4)c(Cl)cc23)[C@@H](C)C1 [Compound I-15] as the compound, how does the IC50 read?
A: 100 to 1000 nM

Q: Which IC50 does the source give for C=CC(=O)N1CCN(c2c(C#N)c(=O)n(-c3ccccc3C(C)C)c3cc(-c4cc(C)c(=O)n(C)c4)c(Cl)cc23)[C@@H](C)C1 [Compound I-16] here?
A: 100 to 1000 nM

Q: Which IC50 does the source give for C=CC(=O)N1CCN(c2c(C#N)c(=O)n(-c3ccccc3C(C)C)c3cc(-c4cccc(Cl)c4)c(Cl)cc23)[C@@H](C)C1 [Compound I-17] here?
A: > 1000 nM

Q: For C=CC(=O)N1CCN(c2c(C#N)c(=O)n(-c3ccccc3C(C)C)c3cc(-c4ccccc4Cl)c(Cl)cc23)[C@@H](C)C1 [Compound I-18], which IC50 is on record?
A: 100 to 1000 nM

Q: For C=CC(=O)N1CCN(c2c(C#N)c(=O)n(-c3ccccc3C(C)C)c3cc(-c4ccccc4C#N)c(Cl)cc23)[C@@H](C)C1 [Compound I-19], which IC50 is on record?
A: > 1000 nM

Q: With C=CC(=O)N1CCN(c2c(C#N)c(=O)n(-c3ccccc3C(C)C)c3cc(-c4cccc5c4oc4ccccc45)c(Cl)cc23)[C@@H](C)C1 [Compound I-20] as the compound, how does the IC50 read?
A: 100 to 1000 nM

Q: With C=CC(=O)N1CCN(c2c(C#N)c(=O)n(-c3ccccc3C(C)C)c3cc(-c4c(C)cnn4C)c(Cl)cc23)[C@@H](C)C1 [Compound I-21] as the compound, how does the IC50 read?
A: 100 to 1000 nM

Q: For C=CC(=O)N1CCN(c2c(C#N)c(=O)n(-c3ccccc3C(C)C)c3cc(-c4ccc(F)c5ccccc45)c(Cl)cc23)[C@@H](C)C1 [Compound I-22], which IC50 is on record?
A: < 100 nM

Q: With C=CC(=O)N1CCN(c2c(C#N)c(=O)n(-c3ccccc3C(C)C)c3cc(-c4cccc5ccncc45)c(Cl)cc23)[C@@H](C)C1 [Compound I-23] as the compound, how does the IC50 read?
A: 100 to 1000 nM

Q: For C=CC(=O)N1CCN(c2c(C#N)c(=O)n(-c3ccccc3C(C)C)c3cc(-c4ccc(Cl)c5ccccc45)c(Cl)cc23)[C@@H](C)C1 [Compound I-24], which IC50 is on record?
A: < 100 nM

Q: With CCn1nccc1-c1cc2c(cc1Cl)c(N1CCN(C(C)=O)C[C@@H]1C)c(C#N)c(=O)n2-c1ccccc1C(C)C [Compound I-25] as the compound, how does the IC50 read?
A: 100 to 1000 nM

Q: C=CC(=O)N1CCN(c2c(C#N)c(=O)n(-c3ccccc3C(C)C)c3cc(-c4cccc5c4OCCO5)c(Cl)cc23)[C@@H](C)C1 [Compound I-26] was tested. Which IC50 did it give?
A: 100 to 1000 nM

Q: C=CC(=O)N1CCN(c2c(C#N)c(=O)n(-c3ccccc3C(C)C)c3cc(-c4cnc(C5CC5)nc4)c(Cl)cc23)[C@@H](C)C1 [Compound I-27] was tested. Which IC50 did it give?
A: 100 to 1000 nM

Q: Which IC50 does the source give for C=CC(=O)N1CCN(c2c(C#N)c(=O)n(-c3ccccc3C(C)C)c3cc(-c4cc(C)c(C)cc4C)c(Cl)cc23)[C@@H](C)C1 [Compound I-28] here?
A: > 1000 nM

Q: For C=CC(=O)N1CCN(c2c(C#N)c(=O)n(-c3ccccc3C(C)C)c3cc(-c4ccc(Cl)c(Cl)c4C)c(Cl)cc23)[C@@H](C)C1 [Compound I-29], which IC50 is on record?
A: 100 to 1000 nM

Q: How did the IC50 turn out when C=CC(=O)N1CCN(c2c(C#N)c(=O)n(-c3ccccc3C(C)C)c3cc(-c4cnc(OC)cc4C)c(Cl)cc23)[C@@H](C)C1 [Compound I-30] was run?
A: > 1000 nM

Q: How did the IC50 turn out when C=CC(=O)N1CCN(c2c(C#N)c(=O)n(-c3ccccc3C(C)C)c3cc(-c4c(OC)ccc5ccccc45)c(Cl)cc23)[C@@H](C)C1 [Compound I-31] was run?
A: < 100 nM

Q: Which IC50 does the source give for C=CC(=O)N1CCN(c2c(C#N)c(=O)n(-c3ccccc3C(C)C)c3cc(-c4cnc(F)cc4C)c(Cl)cc23)[C@@H](C)C1 [Compound I-32] here?
A: 100 to 1000 nM

Q: Which IC50 does the source give for C=CC(=O)N1CCN(c2c(C#N)c(=O)n(-c3ccccc3C(C)C)c3cc(-c4c(C)noc4C)c(Cl)cc23)[C@@H](C)C1 [Compound I-34] here?
A: > 1000 nM

Q: How did the IC50 turn out when C=CC(=O)N1CCN(c2c(C#N)c(=O)n(-c3ccccc3C(C)C)c3cc(-c4c(N)ccc(Cl)c4F)c(Cl)cc23)[C@@H](C)C1 [Compound I-35] was run?
A: < 100 nM

Q: C=CC(=O)N1CCN(c2c(C#N)c(=O)n(-c3ccccc3C(C)C)c3cc(-c4cccc(Cl)c4F)c(Cl)cc23)[C@@H](C)C1 [Compound I-36] was tested. Which IC50 did it give?
A: 100 to 1000 nM

Q: C=CC(=O)N1CCN(c2c(C#N)c(=O)n(-c3ccccc3C(C)C)c3cc(-c4cc(Cl)ccc4F)c(Cl)cc23)[C@@H](C)C1 [Compound I-37] was tested. Which IC50 did it give?
A: 100 to 1000 nM

Q: Which IC50 does the source give for C=CC(=O)N1CCN(c2c(C#N)c(=O)n(-c3ccccc3C(C)C)c3cc(-c4ccc(Cl)cc4Cl)c(Cl)cc23)[C@@H](C)C1 [Compound I-38] here?
A: 100 to 1000 nM

Q: Which IC50 does the source give for C=CC(=O)N1CCN(c2c(C#N)c(=O)n(-c3ccccc3C(C)C)c3cc(-c4cc(Cl)cc(Cl)c4)c(Cl)cc23)[C@@H](C)C1 [Compound I-39] here?
A: 100 to 1000 nM

Q: With C=CC(=O)N1CCN(c2c(C#N)c(=O)n(-c3ccccc3C(C)C)c3cc(-c4ccc(C(F)(F)F)nc4)c(Cl)cc23)[C@@H](C)C1 [Compound I-40] as the compound, how does the IC50 read?
A: > 1000 nM

Q: Which IC50 does the source give for C=CC(=O)N1CCN(c2c(C#N)c(=O)n(-c3ccccc3C(C)C)c3cc(-c4cccc(N)n4)c(Cl)cc23)[C@@H](C)C1 [Compound I-41] here?
A: 100 to 1000 nM

Q: For C=CC(=O)N1CCN(c2c(C#N)c(=O)n(-c3ccccc3C(C)C)c3cc(-c4ccc(Cl)cc4F)c(Cl)cc23)[C@@H](C)C1 [Compound I-42], which IC50 is on record?
A: 100 to 1000 nM

Q: How did the IC50 turn out when C=CC(=O)N1CCN(c2c(C#N)c(=O)n(-c3ccccc3C(C)C)c3cc(-c4cc(Cl)ccc4N)c(Cl)cc23)[C@@H](C)C1 [Compound I-43] was run?
A: < 100 nM

Q: C=CC(=O)N1CCN(c2c(C#N)c(=O)n(-c3ccccc3C(C)C)c3cc(-c4cccc(C(C)=O)c4)c(Cl)cc23)[C@@H](C)C1 [Compound I-44] was tested. Which IC50 did it give?
A: 100 to 1000 nM

Q: How did the IC50 turn out when C=CC(=O)N1CCN(c2c(C#N)c(=O)n(-c3ccccc3C(C)C)c3cc(-c4ccc(N)cc4F)c(Cl)cc23)[C@@H](C)C1 [Compound I-45] was run?
A: 100 to 1000 nM

Q: C=CC(=O)N1CCN(c2c(C#N)c(=O)n(-c3ccccc3C(C)C)c3cc(-c4ccccc4C(F)(F)F)c(Cl)cc23)[C@@H](C)C1 [Compound I-46] was tested. Which IC50 did it give?
A: > 1000 nM

Same assay, conditions: class symbols

Q: For C=CC(=O)N1C[C@H](C)N(c2c(C#N)c(=O)n(-c3ccccc3C(C)C)c3cc(-c4c(C)ccc5[nH]ncc45)c(Cl)cc23)C[C@H]1C (single isomer, unassigned) [Compound I-4-1], which IC50 is on record?
A: > 1000 nM

Q: C=CC(=O)N1C[C@H](C)N(c2c(C#N)c(=O)n(-c3ccccc3C(C)C)c3cc(-c4c(C)ccc5[nH]ncc45)c(Cl)cc23)C[C@H]1C (single isomer, unassigned) [Compound I-4-2] was tested. Which IC50 did it give?
A: 100 to 1000 nM

Q: With C=CC(=O)N1CC2(CCN(c3c(C#N)c(=O)n(-c4ccccc4C(C)C)c4cc(-c5c(C)ccc6[nH]ncc56)c(Cl)cc34)CC2)C1 (single isomer, unassigned) [Compound I-5-1] as the compound, how does the IC50 read?
A: > 1000 nM

Q: For C=CC(=O)N1CC2(CCN(c3c(C#N)c(=O)n(-c4ccccc4C(C)C)c4cc(-c5c(C)ccc6[nH]ncc56)c(Cl)cc34)CC2)C1 (single isomer, unassigned) [Compound I-5-2], which IC50 is on record?
A: 100 to 1000 nM

Q: How did the IC50 turn out when C=C(F)C(=O)N1CCN(c2c(C#N)c(=O)n(-c3ccccc3C(C)C)c3cc(-c4c(C)ccc5[nH]ncc45)c(Cl)cc23)[C@@H](C)C1 (single isomer, unassigned) [Compound I-6-1] was run?
A: > 1000 nM

Q: How did the IC50 turn out when C=C(F)C(=O)N1CCN(c2c(C#N)c(=O)n(-c3ccccc3C(C)C)c3cc(-c4c(C)ccc5[nH]ncc45)c(Cl)cc23)[C@@H](C)C1 (single isomer, unassigned) [Compound I-6-2] was run?
A: < 100 nM

Q: Which IC50 does the source give for C=CC(=O)N1CCN(c2c(C#N)c(=O)n(-c3ccccc3C(C)C)c3cc(-c4c(OC)ccc(Cl)c4F)c(Cl)cc23)[C@@H](C)C1 (single isomer, unassigned) [Compound I-7-1] here?
A: > 1000 nM

Q: With C=CC(=O)N1CCN(c2c(C#N)c(=O)n(-c3ccccc3C(C)C)c3cc(-c4c(OC)ccc(Cl)c4F)c(Cl)cc23)[C@@H](C)C1 (single isomer, unassigned) [Compound I-7-2] as the compound, how does the IC50 read?
A: 100 to 1000 nM

Same assay, conditions: numeric values

Q: For C=CC(=O)N1CCN(c2c(C#N)c(=O)n(-c3ccccc3C(C)C)c3cc(-c4c(C)ccc5[nH]ncc45)c(Cl)cc23)[C@H](C)C1 (single isomer, unassigned) [Compound I-3-1], which IC50 is on record?
A: 1980 nM

Q: With C=CC(=O)N1CCN(c2c(C#N)c(=O)n(-c3ccccc3C(C)C)c3cc(-c4c(C)ccc5[nH]ncc45)c(Cl)cc23)[C@H](C)C1 (single isomer, unassigned) [Compound I-3-2] as the compound, how does the IC50 read?
A: 250 nM
